From ChEMBL document CHEMBL3885861, “Open TG-GATES”

Organism: Rattus norvegicus
Experiment: Open TG-GATES - Regimen: Daily Repeat
Type: toxicity, organism-based, Sprague-Dawley
Design: regimen Daily Repeat, gender Male, age 6 weeks
Conditions: in vivo, po, 300 mg/kg, route gavage, dose level High; for APTT / Bas / Eos / Fbg / Hb / Ht / Lym / MCH / MCHC / MCV / Mono / Neu / PT / Plat / RBC / Ret / WBC: tissue Blood; for KIDNEY_L / KIDNEY_R / KIDNEY_TOTAL: tissue Kidney; for LIVER: tissue Liver; for A/G / ALP / ALT / AST / BUN / CRE / Ca / Cl / DBIL / GLC / IP / K / LDH / Na / PL / RALB / TBIL / TC / TG / TP / gamma-GTP: tissue Plasma

## CC(=O)Nc1ccc2c(c1)Cc1ccccc1-2 [2-ACETYLAMINOFLUORENE]
72 h, time 3 day
  TERMINAL_BW: 193.8 g
  APTT: 20.9 s
  Bas: 0.8%
  Eos: 0.8%
  Fbg: 229.4 mg/dL
  Hb: 15.2 g/dL
  Ht: 43.9%
  Lym: 71.4%
  MCH: 21.2 pg
  MCHC: 34.6%
  MCV: 61.2 fL
  Mono: 3%
  Neu: 23.2%
  PT: 12.8 s
  Plat: 140.3 x10_4/uL
  RBC: 716.4 x10_4/ul
  Ret: 2.9%
  WBC: 127.6 x10_2/uL
  KIDNEY_L: 0.9 g
  KIDNEY_R: 0.9 g
  KIDNEY_TOTAL: 1.9 g
  LIVER: 9.4 g
  A/G: 1.5
  ALP: 595 IU/L
  ALT: 24 IU/L
  AST: 72.2 IU/L
  BUN: 10.2 mg/dL
  CRE: 0.4 mg/dL
  Ca: 9.9 mg/dL
  Cl: 105.8 meq/L
  DBIL: 0.096 mg/dL
  GLC: 193.6 mg/dL
  IP: 7.4 mg/dL
  K: 4.3 meq/L
  LDH: 281.2 IU/L
  Na: 142.4 meq/L
  PL: 93.2 mg/dL
  RALB: 2.9 g/dL
  TBIL: 0.2 mg/dL
  TC: 49.2 mg/dL
  TG: 52.2 mg/dL
  TP: 5 g/dL
  gamma-GTP: 1.2 IU/L
[…], time 7 day
  TERMINAL_BW: 219.8 g
  APTT: 19.8 s
  Bas: 0.6%
  Eos: 1%
  Fbg: 207 mg/dL
  Hb: 12.9 g/dL
  Ht: 36%
  Lym: 68.2%
  MCH: 21.4 pg
  MCHC: 35.9%
  MCV: 59.5 fL
  Mono: 3%
  Neu: 26.4%
  PT: 12.4 s
  Plat: 184.8 x10_4/uL
  RBC: 605.6 x10_4/ul
  Ret: 4.7%
  WBC: 186.5 x10_2/uL
  KIDNEY_L: 1 g
  KIDNEY_R: 1 g
  KIDNEY_TOTAL: 2 g
  LIVER: 11.5 g
  A/G: 1.5
  ALP: 616.8 IU/L
  ALT: 32 IU/L
  AST: 75.8 IU/L
  BUN: 13 mg/dL
  CRE: 0.5 mg/dL
  Ca: 10.4 mg/dL
  Cl: 102.8 meq/L
  DBIL: 0.1 mg/dL
  GLC: 165.8 mg/dL
  IP: 6.5 mg/dL
  K: 4 meq/L
  LDH: 224.2 IU/L
  Na: 138.4 meq/L
  PL: 113.2 mg/dL
  RALB: 2.8 g/dL
  TBIL: 0.2 mg/dL
  TC: 51.6 mg/dL
  TG: 115 mg/dL
  TP: 4.7 g/dL
  gamma-GTP: 1 IU/L
[…], time 14 day
  TERMINAL_BW: 246.4 g
  APTT: 21.6 s
  Bas: 0.6%
  Eos: 0%
  Fbg: 169.6 mg/dL
  Hb: 13.2 g/dL
  Ht: 40.3%
  Lym: 73.2%
  MCH: 22.8 pg
  MCHC: 32.7%
  MCV: 70 fL
  Mono: 2.6%
  Neu: 23%
  PT: 13.5 s
  Plat: 163 x10_4/uL
  RBC: 576.8 x10_4/ul
  Ret: 14.7%
  WBC: 142.6 x10_2/uL
  KIDNEY_L: 1.1 g
  KIDNEY_R: 1 g
  KIDNEY_TOTAL: 2.1 g
  LIVER: 13.3 g
  A/G: 1.5
  ALP: 611.4 IU/L
  ALT: 39.8 IU/L
  AST: 70.4 IU/L
  BUN: 13.2 mg/dL
  CRE: 0.5 mg/dL
  Ca: 9.9 mg/dL
  Cl: 104.8 meq/L
  DBIL: 0.2 mg/dL
  GLC: 160.6 mg/dL
  IP: 6.8 mg/dL
  K: 4.3 meq/L
  LDH: 190 IU/L
  Na: 141 meq/L
  PL: 135.4 mg/dL
  RALB: 2.9 g/dL
  TBIL: 0.3 mg/dL
  TC: 54.8 mg/dL
  TG: 154.4 mg/dL
  TP: 4.8 g/dL
  gamma-GTP: 1.2 IU/L
[…], time 28 day
  TERMINAL_BW: 274 g
  APTT: 23 s
  Bas: 0%
  Eos: 0.4%
  Fbg: 142 mg/dL
  Hb: 13.2 g/dL
  Ht: 39.8%
  Lym: 67.6%
  MCH: 20.9 pg
  MCHC: 33.1%
  MCV: 63.1 fL
  Mono: 2.6%
  Neu: 27.8%
  PT: 13.3 s
  Plat: 134.9 x10_4/uL
  RBC: 632.8 x10_4/ul
  Ret: 10.2%
  WBC: 131.2 x10_2/uL
  KIDNEY_L: 1.2 g
  KIDNEY_R: 1.2 g
  KIDNEY_TOTAL: 2.3 g
  LIVER: 13.2 g
  A/G: 1.3
  ALP: 649.6 IU/L
  ALT: 42.4 IU/L
  AST: 72.6 IU/L
  BUN: 14 mg/dL
  CRE: 0.5 mg/dL
  Ca: 9.8 mg/dL
  Cl: 104.8 meq/L
  DBIL: 0.3 mg/dL
  GLC: 162.2 mg/dL
  IP: 6.6 mg/dL
  K: 3.7 meq/L
  LDH: 169.8 IU/L
  Na: 140.4 meq/L
  PL: 145.6 mg/dL
  RALB: 2.7 g/dL
  TBIL: 0.4 mg/dL
  TC: 59.4 mg/dL
  TG: 134.8 mg/dL
  TP: 4.8 g/dL
  gamma-GTP: 4.8 IU/L
